Results on two compounds are retold here after ChEMBL document CHEMBL4354835, “Selective Blockade of Neuronal BK (α + β4) Channels Preventing Epileptic Seizure” (J Med Chem, 2020).

Active and inactive are the calls of the source. The rule behind the calls is not given here.

The species named for assay [1] is Rattus norvegicus. Nature of the assay: Effect on neuronal network in PTZ-induced epileptic seizures Sprague-Dawley rat model assessed as lowered PSD at theta wave band compound infused into hippocampal region and 10 mins later injected with PTZ and measured after 2 hrs by power spectral density analysis. The class given is functional, organism-based.
Assay [2] is filed under the species Rattus norvegicus. Briefly: Anticonvulsant activity against PTZ-induced epileptic seizure Sprague-Dawley rat model assessed as duration of seizure compound infused into hippocampal region and 10 mins later injected with PTZ and measured for 2 hrs post PTZ-stimulation (reference value: 376 +/- 76.43 sec). The format is functional.
For assay [3], the target named is T1, KCNMA1/KCNMB4 (Rattus norvegicus) (UniProt Q62976+Q9ESK8). Briefly: Inhibition of BK alpha/beta-4 in PTZ-stimulated rat hippocampal pyramidal neurons assessed as increase in AHP size at 300 pA at -80mV holding potential measured after 10 mins by whole cell current clamp assay. The class given is protein-complex assay.
In a further assay the target is KCNMA1/KCNMB4 (Homo sapiens, UniProt Q12791+Q86W47). Nature of the assay: Inhibition of human BK alpha/beta4 channel expressed in HEK293T cells assessed as K+ outward current fraction at 10 uM at -80 mV holding potential by whole cell patch clamp method relative to control. The class given is cell-based. In general terms: Patch clamp records ionic current or voltage across a cell membrane.

Assay [4] is filed under the species Rattus norvegicus. Briefly: Inhibition of C-Fos expression in PTZ-induced epileptic seizures Sprague-Dawley rat model assessed as inhibition of FLI-positive pyramidal neurons in CA3 region of contralateral hippocampus at 10 uM compound infused into hippocampal region and 10 mins later injected with PTZ and measured after 2 hrs by immunohistochemistry. The format is functional, organism-based.

The species entered for assay [5] is Rattus norvegicus. Nature of the assay: Effect on neuronal network in PTZ-induced epileptic seizures Sprague-Dawley rat model assessed as lowered PSD at alpha wave band compound infused into hippocampal region and 10 mins later injected with PTZ and measured after 2 hrs by power spectral density analysis. The format is functional, organism-based.
Assay [6] addresses T2, Calcium-activated potassium channel subunit beta-4 (Homo sapiens, UniProt Q86W47).
T2 sequence (Q86W47 whole entry): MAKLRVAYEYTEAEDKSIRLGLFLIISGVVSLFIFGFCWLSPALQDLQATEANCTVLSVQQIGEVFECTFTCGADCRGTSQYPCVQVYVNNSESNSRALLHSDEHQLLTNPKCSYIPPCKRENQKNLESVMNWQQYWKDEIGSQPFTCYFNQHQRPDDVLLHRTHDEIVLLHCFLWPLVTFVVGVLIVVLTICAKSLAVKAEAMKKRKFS
Briefly: Binding affinity to NT-495 fluorophore reagent labelled human BK beta4 (45 to 166 residues) incubated for 30 mins by microscale thermophoresis assay. For orientation: Microscale thermophoresis detects binding through changes in fluorescence in a small temperature gradient.

The species named for assay [7] is Rattus norvegicus. Briefly: Anticonvulsant activity against PTZ-induced epileptic seizures Sprague-Dawley rat model assessed as decrease in number of seizures at high stage (stage 4 and 5) compound infused into hippocampal region and 10 mins later injected with PTZ and measured for 2 hrs post-PTZ stimulation. The format is functional, organism-based.
Assay [8] is filed under the species Rattus norvegicus. Briefly: Anticonvulsant activity against PTZ-induced epileptic seizure Sprague-Dawley rat model assessed as latency time of seizures compound infused into hippocampal region and 10 mins later injected with PTZ and measured for 2 hrs post PTZ-stimulation (reference value: 108.5 +/- 8.63 sec). The format is functional.
The species named for assay [9] is Rattus norvegicus. Nature of the assay: Effect on neuronal network in PTZ-induced epileptic seizures Sprague-Dawley rat model assessed as lowered PSD at gamma wave band compound infused into hippocampal region and 10 mins later injected with PTZ and measured after 2 hrs by power spectral density analysis. The format is functional, organism-based.
For assay [10], the species on record is Rattus norvegicus. Briefly: Effect on neuronal network in PTZ-induced epileptic seizures Sprague-Dawley rat model assessed as reduced total PSD frequency waves compound infused into hippocampal region and 10 mins later injected with PTZ and measured after 2 hrs by power spectral density analysis. The class given is functional, organism-based.
The species named for assay [11] is Rattus norvegicus. Briefly: Neuroprotective activity in PTZ-induced epileptic seizure Sprague-Dawley rat model assessed as inhibition of hippocampal destruction by measuring increase in Nissl stained granular neurons in contralateral hippocampus DG region compound infused into hippocampal region and 10 mins later injected with PTZ and measured after 3 days by Nissl staining based microscopic analysis. The format is functional, organism-based.

Assay [12] is filed under the species Rattus norvegicus. Briefly: Neuroprotective activity in PTZ-induced epileptic seizure Sprague-Dawley rat model assessed as inhibition of hippocampal destruction by measuring increase in Nissl stained pyramidal neurons in contralateral hippocampus CA3 region compound infused into hippocampal region and 10 mins later injected with PTZ and measured after 3 days by Nissl staining based microscopic analysis. The class given is functional, organism-based.

For assay [13], the species on record is Rattus norvegicus. Briefly: Effect on neuronal network in PTZ-induced epileptic seizures Sprague-Dawley rat model assessed as lowered PSD at delta wave band compound infused into hippocampal region and 10 mins later injected with PTZ and measured after 2 hrs by power spectral density analysis. The class given is functional, organism-based.
The species entered for assay [14] is Rattus norvegicus. Briefly: Inhibition of C-Fos expression in PTZ-induced epileptic seizures Sprague-Dawley rat model assessed as inhibition of FLI-positive granular neurons in DG region of ipsilateral hippocampus at 10 uM compound infused into hippocampal region and 10 mins later injected with PTZ and measured after 2 hrs by immunohistochemistry. The format is functional, organism-based.

The species named for assay [15] is Rattus norvegicus. Briefly: Inhibition of C-Fos expression in PTZ-induced epileptic seizures Sprague-Dawley rat model assessed as inhibition of FLI-positive pyramidal neurons in CA3 region of ipsilateral hippocampus at 10 uM compound infused into hippocampal region and 10 mins later injected with PTZ and measured after 2 hrs by immunohistochemistry. The format is functional, organism-based.

The species named for assay [16] is Rattus norvegicus. Nature of the assay: Effect on neuronal network in PTZ-induced epileptic seizures Sprague-Dawley rat model assessed as lowered PSD at beta wave band compound infused into hippocampal region and 10 mins later injected with PTZ and measured after 2 hrs by power spectral density analysis. The class given is functional, organism-based.
For assay [17], the species on record is Rattus norvegicus. Briefly: Neuroprotective activity in PTZ-induced epileptic seizure Sprague-Dawley rat model assessed as inhibition of hippocampal destruction by measuring increase in Nissl stained pyramidal neurons in contralateral hippocampus CA1 region compound infused into hippocampal region and 10 mins later injected with PTZ and measured after 3 days by Nissl staining based microscopic analysis. The format is functional, organism-based.

Assay [18] has as its target T1, KCNMA1/KCNMB4 (Rattus norvegicus). Briefly: Inhibition of BK alpha/beta-4 in PTZ-stimulated rat hippocampal pyramidal neurons assessed as slower decay of after hyperpolarization at 300 pA at -80mV holding potential measured after 10 mins by whole cell current clamp assay. The class given is protein-complex assay.
For assay [19] the target is unchanged. Nature of the assay: Inhibition of BK alpha/beta-4 in PTZ-stimulated rat hippocampal pyramidal neurons assessed as larger action potential width at 300 pA current injection at -80mV holding potential measured after 10 mins by whole cell current clamp assay. The class given is protein-complex assay.
The species entered for assay [20] is Rattus norvegicus. Briefly: Inhibition of C-Fos expression in PTZ-induced epileptic seizures Sprague-Dawley rat model assessed as inhibition of FLI-positive granular neurons in DG region of contralateral hippocampus at 10 uM compound infused into hippocampal region and 10 mins later injected with PTZ and measured after 2 hrs by immunohistochemistry. The format is functional, organism-based.

For assay [21], the species on record is Rattus norvegicus. Nature of the assay: Anticonvulsant activity against PTZ-induced epileptic seizure Sprague-Dawley rat model assessed as reduction in mortality rate compound infused into hippocampal region and 10 mins later injected with PTZ and measured for 2 hrs post PTZ-stimulation. The format is functional, organism-based.
The species entered for assay [22] is Rattus norvegicus. Nature of the assay: Anticonvulsant activity against PTZ-induced epileptic seizure Sprague-Dawley rat model assessed as mortality rate compound infused into hippocampal region and 10 mins later injected with PTZ and measured for 2 hrs post PTZ-stimulation (reference value: 33.33%). The class given is functional.

Consider `CC[C@H](C)[C@H](NC(=O)[C@H](CC(C)C)NC(=O)CNC(=O)[C@H](Cc1ccccc1)NC(=O)[C@H](CO)NC(=O)CN)C(=O)N[C@@H](CC(=O)O)C(=O)N[C@H](C(=O)N[C@@H](CCCCN)C(=O)N[C@H]1CSSC[C@@H]2NC(=O)[C@H](CCCCN)NC(=O)CNC(=O)[C@H](CCC(N)=O)NC(=O)CNC(=O)[C@H](CO)NC(=O)CNC(=O)[C@H]([C@@H](C)O)NC(=O)[C@H](C(C)C)NC(=O)[C@H](CCC(=O)O)NC(=O)[C@H](CCCCN)NC(=O)[C@@H]3CSSC[C@@H](C(=O)N[C@@H](Cc4ccc(O)cc4)C(=O)O)N[C@@H](CCCNC(=N)N)C(=O)[C@H](CSSC[C@H](NC(=O)[C@H](CCC(=O)O)NC(=O)[C@H](CO)NC(=O)[C@H](CO)NC(=O)[C@H](C)NC(=O)[C@H](Cc4ccccc4)NC1=O)C(=O)N[C@@H](Cc1c[nH]c4ccccc14)C(=O)N[C@@H]([C@@H](C)O)C(=O)N[C@@H](C)C(=O)N3)N[C@@H](CCC(N)=O)C(=O)NC(=O)[C@H](CC(N)=O)NC(=O)[C@H](CC(N)=O)NC(=O)[C@H](CCC(N)=O)NC2=O)C(C)C`, for which the outcome in the assay listed under Rattus norvegicus [1], in the assay filed under Rattus norvegicus [5], in the assay filed under Rattus norvegicus [7], in the assay listed under Rattus norvegicus [13], in the assay filed under Rattus norvegicus [16] and in the assay listed under Rattus norvegicus [17] was inactive. For the same compound, the outcome in the assay filed under Rattus norvegicus [21] was inactive. Further, the Time lay in the range of 316.66 to 353.33 s in the assay filed under Rattus norvegicus [2] and 219.5 to 266.5 s in the assay listed under Rattus norvegicus [8]. Moreover, the inhibition entry (in assay [3]; in the assay listed under Rattus norvegicus [4]; in the assay filed under Rattus norvegicus [10]; in the assay filed under Rattus norvegicus [14]; in the assay listed under Rattus norvegicus [15]; in assay [18]) was “inactive” throughout. In addition, the inhibition entry in the assay listed under Rattus norvegicus [20] is “inactive”. The Ratio on KCNMA1/KCNMB4 worked out at 0.8. Also, in assay [6], the Kd result was “Not Active”. Moreover, the outcome in the assay listed under Rattus norvegicus [9], in the assay listed under Rattus norvegicus [11] and in the assay filed under Rattus norvegicus [12] was Active. Further, in assay [19], the inhibition entry is “Active”.
With `CCCC(CCC)C(=O)O` [VALPROIC ACID], the Time came out at 181.25 s in the assay filed under Rattus norvegicus [2] and 156.63 s in the assay listed under Rattus norvegicus [8]. The mortality (in general, the percentage killed) in the assay listed under Rattus norvegicus [22] is 0%.
